Laboratory results reported in ChEMBL document CHEMBL1145025, “Structure-activity relationship of (1-aryl-2-piperazinylethyl)piperazines: antagonists for the AGRP/melanocortin receptor binding” (J Med Chem, 2003).
Calls of active or inactive are those of the source.

Experiments:
[1] = biological target: T1, Melanocortin receptor 4 (Homo sapiens, UniProt P32245); test: In vitro ability to inhibit the binding of [125I]AGRP to the human Melanocortin 4 receptor
[2] = biological target: T1, Melanocortin receptor 4; test: In vitro ability to inhibit the binding of alpha [125I]NDP-MSH to the human Melanocortin 4 receptor
[3] = biological target: T1, Melanocortin receptor 4; test: Fold selectivity for AGRP vs NDP-MSH binding was reported
[4] = Fold selectivity for AGRP vs NDP-MSH binding was reported; Minimal Activity.
[5] = Fold selectivity for AGRP vs NDP-MSH binding to human MC4R was reported; Minimal activity

T1 sequence (P32245 whole entry): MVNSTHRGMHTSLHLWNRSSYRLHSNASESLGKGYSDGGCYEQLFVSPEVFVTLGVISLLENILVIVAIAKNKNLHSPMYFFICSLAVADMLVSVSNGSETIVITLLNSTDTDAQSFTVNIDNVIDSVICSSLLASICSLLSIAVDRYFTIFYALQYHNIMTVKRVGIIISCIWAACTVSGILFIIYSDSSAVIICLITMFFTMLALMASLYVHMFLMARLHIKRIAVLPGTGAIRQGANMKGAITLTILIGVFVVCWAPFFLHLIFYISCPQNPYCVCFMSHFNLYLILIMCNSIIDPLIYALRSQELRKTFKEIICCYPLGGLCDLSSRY

| SMILES | IC50 [1] [nM] | IC50 [2] [nM] | Selectivity [3] | Selectivity [4] | Selectivity [5] |
| --- | --- | --- | --- | --- | --- |
| CC(CN1CCN(CC(c2cccc(Cl)c2)N2CCN(C)CC2)CC1)C(=O)c1ccccc1 (configuration not stated) | 336 | 598 | 1.8 |  |  |
| CC(CN1CCN(CC(c2ccc(F)cc2)N2CCN(C3CCCCC3)CC2)CC1)C(=O)c1ccccc1 (configuration not stated) | 152 | 164 | 1 |  |  |
| CN1CCN(C(CN2CCN(CCCc3ccccc3)CC2)c2ccc(F)cc2)CC1 (configuration not stated) | > 10000 | 3830 |  | Partially active |  |
| CC(CN1CCN(CC(c2ccccc2)N2CCN(C)CC2)CC1)C(=O)c1ccccc1 (configuration not stated) | > 5000 | > 10000 |  |  | Partially active |
| CN1CCN(C(CN2CCN(CC3CCc4ccccc4C3=O)CC2)c2ccc(Cl)cc2)CC1 (configuration not stated) | > 10000 | 3230 |  | Partially active |  |
| CN1CCN(C(CN2CCN(CCC(=O)c3ccccc3)CC2)c2ccc(F)cc2)CC1 (configuration not stated) | > 10000 | > 10000 |  | Partially active |  |

Now from value to molecule, other results behind:

| IC50 [1] [nM] | IC50 [2] [nM] | Selectivity [3] | Selectivity [4] | SMILES | Selectivity [5] |
| --- | --- | --- | --- | --- | --- |
| 118 | 150 | 0.8 |  | CC(CN1CCN(CC(c2ccc(Cl)cc2)N2CCN(C)CC2)CC1)C(=O)c1ccc(Cl)cc1 (configuration not stated) |  |
| 820 | 469 | 0.5 |  | CC(CN1CCN(CC(c2ccc(F)cc2)N2CCN(C)CC2)CC1)C(=O)c1ccc(C(F)(F)F)cc1 (configuration not stated) |  |
| 321 | 193 | 1.6 |  | CCN1CCN(C(CN2CCN(CC(C)C(=O)c3ccccc3)CC2)c2ccc(F)cc2)CC1 (configuration not stated) |  |
| 266 | 178 | 0.7 |  | CC(CN1CCN(CC(c2ccc(F)cc2)N2CCN(C)CC2)CC1)C(=O)c1ccc(Cl)cc1 (configuration not stated) |  |
| 2860 | 249 | 0.1 |  | CC(CN1CCN(CC(c2ccc(F)cc2)N2CCN(c3ccccc3)CC2)CC1)C(=O)c1ccccc1 (configuration not stated) |  |
| 2150 | 597 | 0.3 |  | COc1ccc(C(=O)C(C)CN2CCN(CC(c3ccc(F)cc3)N3CCN(C)CC3)CC2)cc1 (configuration not stated) |  |
| 364 | 188 | 0.5 |  | CC(CN1CCN(CC(c2ccc(F)cc2)N2CCN(C)CC2)CC1)C(=O)c1ccc(Cl)c(Cl)c1 (configuration not stated) |  |
| 588 | 1500 | 2.5 |  | CC(CN1CCN(CC(c2ccc(F)cc2)N2CCN(C)CC2)CC1)C(=O)c1ccc([N+](=O)[O-])cc1 (configuration not stated) |  |
